# Where “and” joins values, the source holds several entries; their conditions need not be identical. Identical values can stand only once.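 Each compound was tested at five concentrations against cells in 96-well plates for 48 hours. At the GI50, growth is halved. The concentration for full growth arrest is given as TGI.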
# Tests used:
# Assay in all cases: NCI anticancer screen, dose series, 48 h
# COLO 205 colon = test system: COLO 205 colon
# MDA-MB-435 = test system: MDA-MB-435
# MOLT-4 leukemia = test system: MOLT-4 leukemia
# NCI/ADR-RES ovarian = test system: NCI/ADR-RES ovarian
# OVCAR-3 ovarian = test system: OVCAR-3 ovarian
# PC-3 prostate = test system: PC-3 prostate
# RPMI-8226 leukemia = test system: RPMI-8226 leukemia
# RXF 393 renal = test system: RXF 393 renal
# SF-539 CNS = test system: SF-539 CNS
# SK-MEL-28 melanoma = test system: SK-MEL-28 melanoma
Structure (SMILES),GI50 (COLO 205 colon),TGI (COLO 205 colon),GI50 (MDA-MB-435),TGI (MDA-MB-435),GI50 (MOLT-4 leukemia),TGI (MOLT-4 leukemia) [µM],GI50 (NCI/ADR-RES ovarian),TGI (NCI/ADR-RES ovarian) [µM],GI50 (OVCAR-3 ovarian),TGI (OVCAR-3 ovarian),GI50 (PC-3 prostate),TGI (PC-3 prostate),GI50 (RPMI-8226 leukemia),TGI (RPMI-8226 leukemia),GI50 (RXF 393 renal),TGI (RXF 393 renal),GI50 (SF-539 CNS),TGI (SF-539 CNS) [µM],GI50 (SK-MEL-28 melanoma),TGI (SK-MEL-28 melanoma)
C=C(CO)[C@@H]1CC[C@]2(COC3CCCCO3)CC[C@]3(C)[C@H](CC[C@@H]4[C@@]5(C)C=C(C=O)C(=O)C(C)(C)[C@@H]5CC[C@]43C)[C@@H]12 (stereo not given in full),0.273 µM,0.833 µM,0.214 µM,0.494 µM,0.307 µM,1.21,479 nM,1.8,0.207 µM,0.428 µM,0.237 µM,0.973 µM,244 nM,0.777 µM,172 nM,0.334 µM,0.196 µM,0.428,0.254 µM,0.688 µM
NS(=O)(=O)c1ccc(N(/C=C/C(=O)C(F)(F)F)Cc2ccc(Cl)cc2)cc1,37.3 µM,> 100 µM,30.6 µM,96.5 µM,40.1 µM,> 100,15300 nM,54.9,30.3 µM,> 100 µM,19.6 µM,59 µM,26200 nM,89.1 µM,16000 nM,47 µM,17.4 µM,34,29.3 µM,> 100 µM
CCC(=O)Nc1ccc(C)c(-c2ccc(C(=O)NCC3CC3)cc2)c1,> 25 µM,> 25 µM,> 25 µM,> 25 µM,> 25 µM,> 25,> 25000 nM,> 25,> 25 µM,> 25 µM,> 25 µM,> 25 µM,> 25000 nM,> 25 µM,> 25000 nM,> 25 µM,> 25 µM,> 25,> 25 µM,> 25 µM
O=C(Nc1cccc(-c2ccc(Cl)c(C(F)(F)F)c2)c1)C1CCN(Cc2cccc3cccnc23)CC1,1.45 µM,3.12 µM,1.71 µM,3.1 µM,1.79 µM,4.52,1690 nM,3.31,1.72 µM,3.17 µM,1.41 µM,2.93 µM,2070 nM,5.4 µM,1270 nM,2.61 µM,1.76 µM,3.16,1.75 µM,3.14 µM
C/C(O)=C(\C#N)C(=O)Nc1ccc(C(F)(F)F)cc1,47.3 µM,> 100 µM,37.1 µM,> 100 µM,67.9 µM,> 100,21400 nM,> 100,37 µM,> 100 µM,7.97 µM,> 100 µM,24800 nM,> 100 µM,18600 nM,> 100 µM,16 µM,> 100,69.5 µM,> 100 µM
Cc1ccc(C(=O)/C(=C\c2ccc([N+](=O)[O-])cc2)S(=O)Cc2ccc(Cl)cc2)cc1 (stereo not given),1.88 µM,3.81 µM,1.87 µM,4 µM,1.2 µM,6.14,2720 nM,7.97,1.7 µM,3.14 µM,1.56 µM,3.12 µM,1290 nM,4.62 µM,1650 nM,3.1 µM,1.85 µM,3.37,1.76 µM,3.4 µM
Cc1ccc(NS(=O)(=O)c2cccc(C#N)c2)c2[nH]cc(C#N)c12,14.2 µM and 1.51 µM,53.7 µM and 37.3 µM,12.3 µM and 8.31 µM,55.1 µM and 67.4 µM,8.87 µM and 13.6 µM,> 100,14200 nM and 2490 nM,> 92.5,22 µM and 27.3 µM,60.2 µM and > 94.7 µM,12 µM and 19 µM,98.4 µM and > 100 µM,18100 nM and 10500 nM,76.6 µM and 52.2 µM,17600 nM and 1990 nM,74.3 µM and 68.1 µM,16.8 µM and 21.5 µM,> 81.2,20.2 µM and 7.55 µM,98.5 µM and > 44.9 µM
O=C1/C(=C/c2ccc(Cl)cc2)CCC/C1=C\c1ccc(Cl)cc1,4.17 µM,> 100 µM,2.78 µM,18.8 µM,4.09 µM,> 100,4320 nM,> 100,3.03 µM,7.77 µM,5.46 µM,> 100 µM,2100 nM,6.32 µM,1950 nM,3.66 µM,7.85 µM,> 100,5.8 µM,> 100 µM
COc1ccc2c(c1)C(=O)/C(=C/c1ccc([N+](=O)[O-])o1)O2,1.3 µM,2.74 µM,1.39 µM,3.02 µM,1.67 µM,3.97,3110 nM,> 38.9,0.878 µM,2.22 µM,1.91 µM,8.27 µM,2010 nM,6.2 µM,1390 nM,3.05 µM,1.76 µM,3.91,1.69 µM,3.22 µM
Oc1c(Cl)cc(Cl)cc1C(c1cc(Cl)cc(Cl)c1O)C(Cl)(Cl)Cl,1.89 µM,4.76 µM,2.13 µM,5.12 µM,3.67 µM,10.4,1990 nM,7.25,2.4 µM,10.8 µM,2.19 µM,10.9 µM,1800 nM,54.2 µM,2380 nM,6.66 µM,3.17 µM,13,4.18 µM,17.8 µM
Cc1cn2c(/C=N/N=C(N)N)c(-c3ccccn3)nc2s1,11.3 µM,42 µM,19 µM,41.6 µM,8.67 µM,> 100,> 27100 nM,> 67.8,17.3 µM,34.2 µM,15.6 µM,53.9 µM,7530 nM,> 84.7 µM,5900 nM,18.1 µM,3.35 µM,14.4,11.6 µM,36.9 µM
[N-]=[N+]=NCCCn1c2c(c3ccc([N+](=O)[O-])cc3c1=O)C(=O)c1cc(F)ccc1-2,9.26 µM,> 100 µM,4.15 µM,> 86.4 µM,0.245 µM,2.7,1460 nM,> 49,3.76 µM,26 µM,1.25 µM,43.2 µM,237 nM,1.28 µM,4320 nM,54.6 µM,2.38 µM,> 100,11.9 µM,> 100 µM

# From PubChem BioAssay (NCI)
